Results published in patent US11352394B2, “Cyclic cell penetrating peptides comprising beta-hairpin motifs and methods of making and using thereof” (Ohio State Innovation Foundation, priority 2016, dated 2022).
Square brackets hold non-standard residues; d marks the D form. 2Nal = N[C@@H](Cc1ccc2ccccc2c1)C(=O)O

Test system: HeLa cells
Experiment: Cellular (cytosolic) uptake of NF-labeled peptides by flow cytometry (MFI)
Format: cell-based
Settings: relative to CPP 1 (100%); mean ± S.D. of three independent experiments
Procedure: HeLa cells were treated with 5 μM peptide for 2 h, and their cell uptake efficiencies were determined by flow cytometry analysis. The mean fluorescence intensity (MFI) values derived from cytometry analyses reflect the amounts of peptides inside the cytosol and nucleus, whereas any NF-labeled peptide entrapped inside the acidic endosomes are invisible under the experimental conditions (Id.; Qian, Z et al. Chem. Commun. 2015, 51, 2162-2165).
The binding affinity of BH23 (unlabeled) for the Grb2 SH2 domain was then determined by examining its ability to compete with the FAM-labeled ligand for binding to the Grb2 SH2 domain by fluorescence polarization (FP). […] Next, BH23 was labeled with NF at the Asn side chain through a miniPEG-Lys linker and its cytosolic entry efficiency was quantitated by treating HeLa cells with 5 μM of the labeled peptide for 2 h before flow cytometry analysis. […] BH23 was also similarly labeled at the Asn side chain with FAM and its entry into HeLa cells was examined by live-cell confocal microscopy. […] Two control peptides (BH24 and BH25) were also prepared for cellular assays. BH24 and BH25 are structurally similar to BH23, except that BH24 contained a Tyr instead of the pY residue (FIG. 11), whereas in BH25 the two hydrophobic residues critical for cellular uptake (Nal-arg) were replaced with Ala-ala (FIG. 12).
BHT1 and BHT2 were labeled with naphthofluorescein (NF) and their cytosolic uptake into HeLa cells was determined by flow cytometry (Table 10).
Additional cell penetrating compounds were prepared and tested for cytosolic delivery. In these compounds there was no beta-hairpin turn creating moiety.

| Substance | Cellular Uptake (MFI^NF, %), cytosolic delivery efficiency of CPPs without beta-hairpin moiety [%] |
| --- | --- |
| 131 (cyclo(F[2Nal]RRRRQ); SMILES N=C(N)NCCC[C@@H]1NC(=O)[C@H](CCCNC(=N)N)NC(=O)[C@H](CCCNC(=N)N)NC(=O)[C@H](Cc2ccc3ccccc3c2)NC(=O)[C@H](Cc2ccccc2)NC(=O)[C@H](CCC(N)=O)NC(=O)[C@H](CCCNC(=N)N)NC1=O) [Peptide 131] | 100 ± 6 |
| 234 (FFRRRQ; cyclic) [Peptide 234] | 65 |
| 235 (cyclo(FF[dR]R[dR]Q); SMILES N=C(N)NCCC[C@@H]1NC(=O)[C@@H](CCCNC(=N)N)NC(=O)[C@H](Cc2ccccc2)NC(=O)[C@H](Cc2ccccc2)NC(=O)[C@H](CCC(N)=O)NC(=O)[C@@H](CCCNC(=N)N)NC1=O) [Peptide 235] | 122 |
| 236 (cyclo(FFR[dR]RQ); SMILES N=C(N)NCCC[C@@H]1NC(=O)[C@H](Cc2ccccc2)NC(=O)[C@H](Cc2ccccc2)NC(=O)[C@H](CCC(N)=O)NC(=O)[C@H](CCCNC(=N)N)NC(=O)[C@@H](CCCNC(=N)N)NC1=O) [Peptide 236] | 40 |
| 237 (FRFRRQ; cyclic) [Peptide 237] | 15 ± 3 |
| 238 (FRRFRQ; cyclic) [Peptide 238] | 38 ± 10 |
| 239 (FRRRFQ; cyclic) [Peptide 239] | 25 ± 4 |
| 240 (cyclo(G[2Nal]RRRQ); SMILES N=C(N)NCCC[C@@H]1NC(=O)[C@H](Cc2ccc3ccccc3c2)NC(=O)CNC(=O)[C@H](CCC(N)=O)NC(=O)[C@H](CCCNC(=N)N)NC(=O)[C@H](CCCNC(=N)N)NC1=O) [Peptide 240] | 49 ± 5 |
| 241 (FFFRAQ; cyclic) [Peptide 241] | 52 ± 2 |
| 242 (FFFRRQ; cyclic) [Peptide 242] | 125 ± 25 |
| 243 (FFRRRRQ; cyclic) [Peptide 243] | 89 ± 27 |
| 244 (FRRFRRQ; cyclic) [Peptide 244] | 31 ± 3 |
| 245 (FRRRFRQ; cyclic) [Peptide 245] | 20 ± 3 |
| 246 (RFFRRRQ; cyclic) [Peptide 246] | 63 ± 19 |
| 247 (RFRRFRQ; cyclic) [Peptide 247] | 94 ± 9 |
| 248 (FRFRRRQ; cyclic) [Peptide 248] | 132 ± 57 |
| 249 (FFFRRRQ; cyclic) [Peptide 249] | 231 ± 43 |
| 250 (FFRRRFQ; cyclic) [Peptide 250] | 158 ± 21 |
| 252 (RRFFFRQ; cyclic) [Peptide 252] | 172 ± 24 |
| 253 (FFRFRRQ; cyclic) [Peptide 253] | 106 ± 22 |
| 254 (FFRRFRQ; cyclic) [Peptide 254] | 86 ± 12 |
| 255 (FRRFFRQ; cyclic) [Peptide 255] | 109 ± 11 |
| 256 (FRRFRFQ; cyclic) [Peptide 256] | 101 ± 16 |
| 257 (FRFRFRQ; cyclic) [Peptide 257] | 105 ± 14 |
| 258 (RFFRFRQ; cyclic) [Peptide 258] | 96 ± 31 |
